In patent US20050222146A1, “N-substituted-n-sulfonylaminocyclopropane compounds and pharmaceutical use thereof” (priority 2003, published 2005):

Columns and labels:
Assay type in all cases: biochemical
aggrecanase-1 = target: T1, aggrecanase-1 (Homo sapiens, UniProt O75173); assay: Aggrecanase-1 inhibitory action, Particle Assay (GAG release from aggrecan-containing polyacrylamide particles); conditions: 37° C. for 15 hr, read-out: Experimental Example 1 IC50 AG1
T1 sequence (O75173 213-837): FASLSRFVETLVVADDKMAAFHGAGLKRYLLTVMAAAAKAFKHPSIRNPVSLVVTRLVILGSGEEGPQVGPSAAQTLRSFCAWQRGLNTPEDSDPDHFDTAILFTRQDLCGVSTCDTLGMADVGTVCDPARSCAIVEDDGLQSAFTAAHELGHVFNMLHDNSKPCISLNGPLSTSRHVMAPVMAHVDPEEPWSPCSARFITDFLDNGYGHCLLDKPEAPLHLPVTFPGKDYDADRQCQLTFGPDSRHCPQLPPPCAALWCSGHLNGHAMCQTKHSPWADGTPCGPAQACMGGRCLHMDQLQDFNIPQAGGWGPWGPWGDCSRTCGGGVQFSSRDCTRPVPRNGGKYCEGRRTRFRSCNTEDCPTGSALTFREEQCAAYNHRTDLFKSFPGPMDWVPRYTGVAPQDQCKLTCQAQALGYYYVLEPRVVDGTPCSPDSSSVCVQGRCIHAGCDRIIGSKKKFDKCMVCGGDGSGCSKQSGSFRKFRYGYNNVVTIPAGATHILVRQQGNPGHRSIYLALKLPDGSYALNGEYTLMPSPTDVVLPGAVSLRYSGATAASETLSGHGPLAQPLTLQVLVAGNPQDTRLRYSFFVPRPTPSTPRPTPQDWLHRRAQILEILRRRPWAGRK
Summary of the method: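 Enzyme and test compound (DMSO dilutions) in Tris-HCl buffer incubated with aggrecan-containing polyacrylamide particles at 37 °C for 15 hr. Released GAG in supernatant quantified with 1,9-dimethylmethylene blue at 595 nm against whale chondroitin sulfate standard; % inhibition versus enzyme-free and inhibitor-free wells gives IC50 (μM).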

MMP-1 = target: T2, MMP-1 (Homo sapiens, UniProt P03956); assay: MMP-1 inhibitory action, Type I collagen Activity Measurement kit (FITC-labeled collagen type I); conditions: 37° C. for 3 hr, read-out: Experimental Example 2 IC50 MMP1
T2 sequence (P03956 100-469): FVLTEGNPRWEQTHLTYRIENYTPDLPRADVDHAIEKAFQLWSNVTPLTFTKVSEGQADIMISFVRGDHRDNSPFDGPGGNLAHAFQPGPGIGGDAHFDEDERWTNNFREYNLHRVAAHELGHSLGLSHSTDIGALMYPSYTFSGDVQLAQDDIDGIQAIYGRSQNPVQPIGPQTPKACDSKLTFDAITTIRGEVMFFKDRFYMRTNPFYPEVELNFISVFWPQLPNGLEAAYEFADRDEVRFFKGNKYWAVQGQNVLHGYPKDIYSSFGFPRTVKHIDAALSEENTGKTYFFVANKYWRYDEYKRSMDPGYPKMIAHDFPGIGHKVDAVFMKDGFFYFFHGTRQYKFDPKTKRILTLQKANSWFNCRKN

Recombinant Human MMP-13 = target: T3, Recombinant Human MMP-13 (Homo sapiens, UniProt P45452); assay: MMP-13 inhibition, MMP-13 specific fluorescent substrate with quencher; conditions: synthetic substrate 7-MCA-Pro-CHA-Gly-NVal-His-Ala-DPA, 25° C. for 1 h; read-out: Experimental Example 3 IC50 MMP13
T3 construct: purchased R&D systems 511-MM
Experimental: Inhibitory activity of tested compounds on MMP-13 was measured using MMP-13 specific fluorescent substrate with quencher.
The enzyme and substrate were diluted with Tris-HCl buffer, and test compounds were diluted with dimethyl sulfoxide (DMSO).
Test compounds and the enzyme (Recombinant Human MMP-13: R&D systems, 511-MM) were added into 96-well plate. The reaction was initiated by adding synthetic substrate (7-MCA-Pro-CHA-Gly-NVal-His-Ala-DPA: enzyme systems products, Met-06) into the plate. After incubation at 25° C. for 1 h, the reaction was terminated by addition of reaction terminating solution containing acetic acid. Fluorescence intensity of each well was measured (Ex: 325 nm, Em: 405 nm) and the MMP-13 inhibitory activity of the compound in each well (%) was calculated based on the values of enzyme-free well and inhibitor-free well. The inhibitory activity of the compound was represented as IC50 (μM).

SMILES	IC50 (aggrecanase-1) [nM]	IC50 (MMP-1) [nM]	IC50 (Recombinant Human MMP-13) [nM]
CN([C@]1(C(=O)O)C[C@@]1(CN1CCOCC1)c1ccccc1)S(=O)(=O)c1ccc(-c2cc(C(F)(F)F)on2)s1 (relative stereo) [Example 2-24, (1R*,2S*)-1-{Methyl-[5-(5-trifluoromethyl-isoxazol-3-yl)-thiophene-2-sulfonyl]-amino}-2-morpholin-4-ylmethyl-2-phenyl-cyclopropanecarboxylic acid]	≥ 1000	≥ 10000	≥ 10000
O=C1CN(S(=O)(=O)c2ccc(-c3ccc(Cl)cc3)s2)C2(C(=O)O)CC2(c2ccccc2)CN1 (stereo not drawn) [Example 2-25, 1R*,7S*)-2-[5-(4-Chloro-phenyl)-thiophene-2-sulfonyl]-4-oxo-7-phenyl-2,5-diaza-bicyclo[5.1.0]octane-1-carboxylic acid]	≥ 1000	≥ 10000	≥ 1000
O=C(O)[C@@]12C[C@]1(c1ccccc1)CCCN2S(=O)(=O)c1ccc(-c2ccc(Cl)cc2)s1 (relative stereo) [Example 2-13, (1R*,6S*)-2-[5-(4-Chloro-phenyl)-thiophene-2-sulfonyl]-6-phenyl-2-aza-bicyclo[4.1.0]heptane-1-carboxylic acid]	< 1000	≥ 10000	≥ 1000
CN1CC2(c3ccccc3)CC2(C(=O)O)N(S(=O)(=O)c2ccc(-c3ccc(Cl)cc3)s2)CC1=O (stereo not drawn) [Example 2-27, (1R*,7R*)-2-[5-(4-Chloro-phenyl)-thiophene-2-sulfonyl]-5-methyl-4-oxo-7-phenyl-2-,5-diaza-bicyclo[5.1.0]octane-1-carboxylic acid]	≥ 1000	≥ 10000	≥ 1000

The remaining lines, values ahead:

IC50 (aggrecanase-1) [nM]	IC50 (MMP-1) [nM]	IC50 (Recombinant Human MMP-13) [nM]	SMILES
< 1000	≥ 10000	≥ 1000	O=C(O)c1cnn(CCN([C@]2(C(=O)O)C[C@H]2c2ccccc2)S(=O)(=O)N2CCN(c3ccc(C(F)(F)F)cc3)CC2)c1 (relative stereo) [Example 2-05, 1-(2-{((1R*,2S*)-1-Carboxy-2-phenyl-cyclopropyl)-[4-(4-trifluoromethyl-phenyl)-piperazine-1-sulfonyl]-amino}-ethyl)-1H-pyrazole-4-carboxylic acid]
≥ 1000	≥ 10000	≥ 1000	CN1CCN(C(=O)OCCN([C@]2(C(=O)O)C[C@H]2c2ccccc2)S(=O)(=O)c2ccc(-c3ccc(Cl)cc3)s2)CC1 [Example 2-15, 4-Methyl-piperazine-1-carboxylic acid 2-{((1R,2S)-1-carboxy-2-phenyl-cyclopropyl)-[5-(4-chloro-phenyl)-thiophene-2-sulfonyl]-amino}-ethyl ester]
< 1000	≥ 10000	≥ 10000	O=C(O)CN([C@@]1(C(=O)O)C[C@@H]1c1ccccc1)S(=O)(=O)c1ccc(-c2ccc(Cl)cc2)s1 [Example 2-10, (1S,2R)-1-{Carboxymethyl-[5-(4-chloro-phenyl)-thiophene-2-sulfonyl]-amino}-2-phenyl-cyclopropanecarboxylic acid]
